From patent publication US4203989A, “Anti-diarrheal diaryl-(1-azabicyclo(2.2.2)octan-2-yl)-alkanols and related compounds” (G. D. Searle & Co., priority 1979, dated 1980) come the findings set out here.

This assay deals with gastrointestinal motility. Put plainly: Mouse Cecal Test (inhibition of gastrointestinal motility, charcoal in cecum). As to conditions: IG (oral), 30 min before oral charcoal, cecum examined 3.5 h after charcoal, all-or-none, logistic method of Berkson, read-out: ED50 ± S.E. (median effective dose). In kind it is in vivo, mouse (male Charles River mice). As to the method: The method used for this assay is a modification of the techniques previously described by Macht and Barb-Gose, J. Amer. Pharm. Ass., 20, 558 (1931), and Janssen and Jageneau, J. Pharm. Pharmacol., 9, 381 (1957). Details are as follows:
A group of six, male Charles River mice weighing 20-25 g. which have been previously fasted for 24 hours are pretreated with the test compounds administered orally as a solution in water or suspended in 0.5% methyl cellulose. A constant volume of 10 ml./kg. is employed. Thirty minutes following administration of the test compounds, the animals are given a single oral dose of charcoal which consists of 0.2 ml. per mouse of 10% charcoal suspended in 1.0% methyl cellulose. Three and a half hours after charcoal administration, the animals are sacrificed and the cecum examined for the absence or presence of charcoal on an all-or-none basis.
The median effective dose (ED50) is then calculated for each compound using the logistic method of Berkson (1953).

Turning to `Cl.OC1(C(CC2CC3CCN2CC3)(c2ccccc2)c2ccccc2)CCCC1` (centres unmarked) [1-[2-(1-azabicyclo[2.2.2]octan-2-yl)-1,1-diphenylethyl] cyclopentanol hydrochloride], the ED50 – broadly, the dose at which the effect has come halfway, by size or by number of responders – came to 1.78 ± 0.83 mg/kg.
Under `OC1(C(CC2CC3CCN2CC3)(c2ccccc2)c2ccccc2)CCCC1` (centres unmarked) [1-[2-(1-azabicyclo[2.2.2]octan-2-yl)-1,1-diphenylethyl] cyclopentanol] stands 7.61 ± 2.23 mg/kg; under `CC(C)(O)C(CC1CC2CCN1CC2)(c1ccccc1)c1ccccc1` (stereo not drawn) [Alpha, alpha-dimethyl-beta, beta-diphenyl-1-azabicyclo [2.2.2]octane-2-propanol], 1.6 ± 0.28 mg/kg.
The same measure for `OCCC(CC1CC2CCN1CC2)(c1ccccc1)c1ccccc1` (centres unmarked) [Gamma, gamma-diphenyl-1-azabicyclo[2.2.2]octane-2-butanol]: 6.39 ± 2.09 mg/kg.
The same measure for `Cl.OCCC(CC1CC2CCN1CC2)(c1ccccc1)c1ccccc1` (centres unmarked) [gamma, gamma-diphenyl-1-azabicyclo[2.2.2]octane-2-butanol hydrochloride]: 1.2 ± 0.25 mg/kg.
